# What was measured:
# [1] = tested on: Bordetella bronchiseptica 16; assay: MIC, standard agar dilution test; type: cell-based
# Text: (§1) The antibacterial activity of the deprotected compounds of this invention is illustrated by the following in vitro and in vivo test data obtained with representative compounds. In Table I, the minimum inhibitory concentration (MIC) for representative compounds against a wide range of gram-positive and gram-negative bacteria is presented. The MIC values were obtained by the standard agar dilution test.
# [2] = tested on: Citrobacter freundii CF17; assay: MIC, standard agar dilution test; type: cell-based
# Text: as §1
# [3] = tested on: Enterobacter aerogenes C32; assay: MIC, standard agar dilution test; type: cell-based
# Text: as §1
# [4] = tested on: Enterobacter aerogenes EB17; assay: MIC, standard agar dilution test; type: cell-based
# Text: as §1
# [5] = tested on: Enterobacter aerogenes X68; assay: MIC, standard agar dilution test; type: cell-based
# Text: as §1
# [6] = tested on: Enterobacter cloacae 265A; assay: MIC, standard agar dilution test; type: cell-based
# Text: as §1
# Enterobacter cloacae EB5 = assay: MIC, standard agar dilution test; type: cell-based
# Text: as §1
# Escherichia coli EC14 = assay: MIC, standard agar dilution test; type: cell-based
# Text: as §1
# Escherichia coli N10 = assay: MIC, standard agar dilution test; type: cell-based
# Text: as §1
# Escherichia coli TEM = assay: MIC, standard agar dilution test; type: cell-based
# Text: as §1
# Hemophilus influenzae 76 = assay: MIC, standard agar dilution test; type: cell-based
# Text: as §1
# [7] = tested on: Hemophilus influenzae C.L.; assay: MIC, standard agar dilution test; type: cell-based
# Text: as §1
# [8] = tested on: Klebsiella pneumoniae KAE; assay: MIC, standard agar dilution test; type: cell-based
# Text: as §1
# [9] = tested on: Klebsiella pneumoniae X26; assay: MIC, standard agar dilution test; type: cell-based
# Text: as §1
# Proteus inconstans PR33 = assay: MIC, standard agar dilution test; type: cell-based
# Text: as §1
# Proteus morganii PR15 = assay: MIC, standard agar dilution test; type: cell-based
# Text: as §1
# Proteus rettgeri C24 = assay: MIC, standard agar dilution test; type: cell-based
# Text: as §1
# Proteus rettgeri PR7 = assay: MIC, standard agar dilution test; type: cell-based
# Text: as §1
# [10] = tested on: Pseudomonas aeruginosa Ps18; assay: MIC, standard agar dilution test; type: cell-based
# Text: as §1
# [11] = tested on: Pseudomonas aeruginosa X239; assay: MIC, standard agar dilution test; type: cell-based
# Text: as §1
# [12] = tested on: Pseudomonas aeruginosa X528; assay: MIC, standard agar dilution test; type: cell-based
# Text: as §1
# [13] = tested on: Salmonella heidelberg X514; assay: MIC, standard agar dilution test; type: cell-based
# Text: as §1
# [14] = tested on: Salmonella typhimurium 1335; assay: MIC, standard agar dilution test; type: cell-based
# Text: as §1
# Serratia marcescens SE3 = assay: MIC, standard agar dilution test; type: cell-based
# Text: as §1
# Serratia marcescens X99 = assay: MIC, standard agar dilution test; type: cell-based
# Text: as §1
# Shigella sonnei N9 = assay: MIC, standard agar dilution test; type: cell-based
# Text: as §1
# [15] = tested on: Staphylococcus aureus S13E; assay: MIC, standard agar dilution test; type: cell-based
# Text: as §1
# [16] = tested on: Staphylococcus aureus V41; assay: MIC, standard agar dilution test; type: cell-based
# Text: as §1
# [17] = tested on: Staphylococcus aureus X1.1; assay: MIC, standard agar dilution test; type: cell-based
# Text: as §1
# [18] = tested on: Staphylococcus aureus X400; assay: MIC, standard agar dilution test; type: cell-based
# Text: as §1
# [19] = tested on: Staphylococcus epidermidis EPI1; assay: MIC, standard agar dilution test; type: cell-based
# Text: as §1
# [20] = tested on: Staphylococcus epidermidis EPI2; assay: MIC, standard agar dilution test; type: cell-based
# Text: as §1
# [21] = tested on: Streptococcus group D 9960; assay: MIC, standard agar dilution test; type: cell-based
# Text: as §1
# [22] = tested on: Streptococcus group D X66; assay: MIC, standard agar dilution test; type: cell-based
# Text: as §1
# [23] = tested on: Streptococcus pneumoniae Park I; assay: MIC, standard agar dilution test; type: cell-based
# Text: as §1
# [24] = tested on: Streptococcus pyogenes C203; assay: MIC, standard agar dilution test; type: cell-based
# Text: as §1
# [25] = tested on: Staphylococcus aureus 3055; assay: Subcutaneous therapy of experimental bacterial infection in mice; type: in vivo; conditions: subcutaneous doses at 1 and 5 hours post infection, challenged with 1794 LD50's
# Protocol: Table II illustrates the effective dose (ED50, effective dose to protect 50 percent of the test animals) for representative compounds of this invention against an experimental bacterial infection in mice.
# The EDso values were determined as described by W. E. Wick et al., Journal of Bacteriology, 81 [No. 2], 233-235 (1961).
# [26] = read-out: Minimum inhibitory concentration
# [27] = Klebsiella aerogenes, read-out: Minimum inhibitory concentration
# [28] = Haemophilus influenzae, read-out: Minimum inhibitory concentration
# [29] = Providencia rettgeri, read-out: Minimum inhibitory concentration
# [30] = Salmonella enterica, read-out: Minimum inhibitory concentration
molecule,measurement,setting,value
"CNC1C(OC2OC(CO)C(N)C(O)C2O)OC2CC(NC(=O)CN)C(OC3C(N)CC(N)C(O)C3O)OC2C1O (centres unmarked) [Test compound 3, 2′-N-Glycylapramycin]",MIC,[1]; [26],128 µg/mL
same,MIC,[2]; [26],64 µg/mL
same,MIC,[3]; [27],16 µg/mL
same,MIC,[4]; [27],16 µg/mL
same,MIC,[5]; [27],16 µg/mL
same,MIC,[6]; [26],32 µg/mL
same,MIC,Enterobacter cloacae EB5; [26],32 µg/mL
same,MIC,Escherichia coli EC14; [26],32 µg/mL
same,MIC,Escherichia coli N10; [26],64 µg/mL
same,MIC,"Escherichia coli TEM; Escherichia coli, read-out: Minimum inhibitory concentration",8 µg/mL
same,MIC,Hemophilus influenzae 76; [28],32 µg/mL
same,MIC,[7]; [28],16 µg/mL
same,MIC,[8]; [26],16 µg/mL
same,MIC,[9]; [26],8 µg/mL
same,MIC,"Proteus inconstans PR33; Providencia alcalifaciens, read-out: Minimum inhibitory concentration",32 µg/mL
same,MIC,"Proteus morganii PR15; Morganella morganii, read-out: Minimum inhibitory concentration",128 µg/mL
same,MIC,Proteus rettgeri C24; [29],16 µg/mL
same,MIC,Proteus rettgeri PR7; [29],32 µg/mL
same,MIC,[10]; [26],128 µg/mL
same,MIC,[11]; [26],64 µg/mL
same,MIC,[12]; [26],128 µg/mL
same,MIC,[13]; [30],32 µg/mL
same,MIC,[14]; [30],64 µg/mL
same,MIC,Serratia marcescens SE3; [26],32 µg/mL
same,MIC,Serratia marcescens X99; [26],16 µg/mL
same,MIC,Shigella sonnei N9; [26],16 µg/mL
same,MIC,"[15]; Staphylococcus aureus, S13E, read-out: Minimum inhibitory concentration",32 µg/mL
same,MIC,[16]; [26],64 µg/mL
same,MIC,[17]; [26],16 µg/mL
same,MIC,[18]; [26],128 µg/mL
same,MIC,"[19]; Staphylococcus epidermidis, EPI1, read-out: Minimum inhibitory concentration",16 µg/mL
same,MIC,[20]; [26],8 µg/mL
same,MIC,"[21]; D9960, read-out: Minimum inhibitory concentration",> 128 µg/mL
same,MIC,"[22]; DX66, read-out: Minimum inhibitory concentration",> 128 µg/mL
same,MIC,"[23]; Streptococcus pneumoniae, read-out: Minimum inhibitory concentration",128 µg/mL
same,MIC,[24]; [26],64 µg/mL
same,ED50,"[25]; Staphylococcus aureus, 3055, sc, read-out: Effective dose (ED50)",30 mg/kg
2′-N-(S-γ-Amino-α-hydroxybutyryl)nebramine [Test compound 5],Minimum inhibitory concentration,[1],>128 µg/mL
same,Minimum inhibitory concentration,[2],64 µg/mL
same,Minimum inhibitory concentration,[3],64 µg/mL
same,Minimum inhibitory concentration,[4],64 µg/mL
same,Minimum inhibitory concentration,[5],64 µg/mL
same,Minimum inhibitory concentration,[6],>128 µg/mL
same,Minimum inhibitory concentration,Enterobacter cloacae EB5,128 µg/mL
same,Minimum inhibitory concentration,Escherichia coli EC14,>128 µg/mL
same,Minimum inhibitory concentration,Escherichia coli N10,128 µg/mL
same,Minimum inhibitory concentration,"Escherichia coli TEM; Escherichia coli TEM, agar dilution",32 µg/mL
same,Minimum inhibitory concentration,Hemophilus influenzae 76,64 µg/mL
same,Minimum inhibitory concentration,[7],64 µg/mL
same,Minimum inhibitory concentration,[8],64 µg/mL
same,Minimum inhibitory concentration,[9],64 µg/mL
same,Minimum inhibitory concentration,Proteus inconstans PR33,64 µg/mL
same,Minimum inhibitory concentration,Proteus morganii PR15,64 µg/mL
same,Minimum inhibitory concentration,Proteus rettgeri C24,64 µg/mL
same,Minimum inhibitory concentration,Proteus rettgeri PR7,32 µg/mL
same,Minimum inhibitory concentration,[10],128 µg/mL
same,Minimum inhibitory concentration,[11],128 µg/mL
same,Minimum inhibitory concentration,[12],>128 µg/mL
same,Minimum inhibitory concentration,[13],128 µg/mL
same,Minimum inhibitory concentration,[14],128 µg/mL
same,Minimum inhibitory concentration,Serratia marcescens SE3,>128 µg/mL
same,Minimum inhibitory concentration,Serratia marcescens X99,128 µg/mL
same,Minimum inhibitory concentration,Shigella sonnei N9,64 µg/mL
same,Minimum inhibitory concentration,"[15]; Staphylococcus aureus S13E, agar dilution",32 µg/mL
same,Minimum inhibitory concentration,[16],64 µg/mL
same,Minimum inhibitory concentration,[17],32 µg/mL
same,Minimum inhibitory concentration,[18],64 µg/mL
same,Minimum inhibitory concentration,"[19]; Staphylococcus epidermidis EPI1, agar dilution",64 µg/mL
same,Minimum inhibitory concentration,[20],32 µg/mL
same,Minimum inhibitory concentration,[21],>128 µg/mL
same,Minimum inhibitory concentration,[22],>128 µg/mL
same,Minimum inhibitory concentration,"[23]; Streptococcus pneumoniae Park I, agar dilution",128 µg/mL
same,Minimum inhibitory concentration,[24],128 µg/mL
same,Effective dose (ED50),[25],>70^3 mg/kg×2

# From patent EP0048613B1, “4-0-Substituted -2-deoxystreptamine aminoglycoside derivatives, their preparation and formulations containing them” (ELI LILLY AND COMPANY, priority 1980, dated 1982)
